The values that follow are results of earlier work, collected in PMC9851200, “Multiparameter phenotypic screening for endogenous TFEB and TFE3 translocation identifies novel chemical series modulating lysosome function” (Autophagy, 2022).

Holding throughout (parameters): method as in original PKIS2 published data
The target of data set [1] is kinases (KINOMEscan panel) (Homo sapiens, UniProt P29317). The following applies: EPHA2; Published KINOMEscan; ref original PKIS2 published data; cited from earlier work.
Sequence of kinases (KINOMEscan panel) (Homo sapiens, UniProt P29317) (P29317 24-976): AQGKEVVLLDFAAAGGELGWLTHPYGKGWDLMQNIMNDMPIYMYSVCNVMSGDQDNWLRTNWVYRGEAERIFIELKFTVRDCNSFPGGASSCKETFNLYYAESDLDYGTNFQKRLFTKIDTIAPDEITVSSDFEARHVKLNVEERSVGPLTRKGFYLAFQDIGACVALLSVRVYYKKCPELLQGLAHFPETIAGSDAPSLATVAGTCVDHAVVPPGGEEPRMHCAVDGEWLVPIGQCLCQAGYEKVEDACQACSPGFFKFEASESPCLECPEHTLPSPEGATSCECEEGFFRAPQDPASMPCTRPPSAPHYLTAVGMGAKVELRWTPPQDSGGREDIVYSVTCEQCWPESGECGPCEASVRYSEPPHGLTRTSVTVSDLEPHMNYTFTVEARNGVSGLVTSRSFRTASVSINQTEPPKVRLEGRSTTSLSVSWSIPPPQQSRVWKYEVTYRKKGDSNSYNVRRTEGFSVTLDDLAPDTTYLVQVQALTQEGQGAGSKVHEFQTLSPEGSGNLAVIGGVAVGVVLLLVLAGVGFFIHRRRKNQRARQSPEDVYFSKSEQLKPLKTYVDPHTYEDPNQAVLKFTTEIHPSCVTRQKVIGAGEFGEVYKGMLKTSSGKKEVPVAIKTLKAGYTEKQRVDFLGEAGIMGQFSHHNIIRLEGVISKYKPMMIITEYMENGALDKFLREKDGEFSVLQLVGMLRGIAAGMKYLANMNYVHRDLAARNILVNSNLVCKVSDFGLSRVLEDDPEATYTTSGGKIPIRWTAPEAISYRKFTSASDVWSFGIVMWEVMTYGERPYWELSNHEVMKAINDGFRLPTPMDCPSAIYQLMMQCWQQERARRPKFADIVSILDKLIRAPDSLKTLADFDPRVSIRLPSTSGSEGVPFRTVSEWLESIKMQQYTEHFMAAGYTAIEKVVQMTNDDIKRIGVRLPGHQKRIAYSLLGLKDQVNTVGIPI
Data set [2] concerns the target kinases (KINOMEscan panel) (Homo sapiens, UniProt Q8TDR2). The following applies: STK35; Published KINOMEscan; ref original PKIS2 published data; cited from earlier work.
Data set [3] deals with kinases (KINOMEscan panel) (Homo sapiens, UniProt P29376). The following applies: LTK; Published KINOMEscan; ref original PKIS2 published data; cited from earlier work.
Sequence of kinases (KINOMEscan panel) (Homo sapiens, UniProt P29376) (P29376 17-864): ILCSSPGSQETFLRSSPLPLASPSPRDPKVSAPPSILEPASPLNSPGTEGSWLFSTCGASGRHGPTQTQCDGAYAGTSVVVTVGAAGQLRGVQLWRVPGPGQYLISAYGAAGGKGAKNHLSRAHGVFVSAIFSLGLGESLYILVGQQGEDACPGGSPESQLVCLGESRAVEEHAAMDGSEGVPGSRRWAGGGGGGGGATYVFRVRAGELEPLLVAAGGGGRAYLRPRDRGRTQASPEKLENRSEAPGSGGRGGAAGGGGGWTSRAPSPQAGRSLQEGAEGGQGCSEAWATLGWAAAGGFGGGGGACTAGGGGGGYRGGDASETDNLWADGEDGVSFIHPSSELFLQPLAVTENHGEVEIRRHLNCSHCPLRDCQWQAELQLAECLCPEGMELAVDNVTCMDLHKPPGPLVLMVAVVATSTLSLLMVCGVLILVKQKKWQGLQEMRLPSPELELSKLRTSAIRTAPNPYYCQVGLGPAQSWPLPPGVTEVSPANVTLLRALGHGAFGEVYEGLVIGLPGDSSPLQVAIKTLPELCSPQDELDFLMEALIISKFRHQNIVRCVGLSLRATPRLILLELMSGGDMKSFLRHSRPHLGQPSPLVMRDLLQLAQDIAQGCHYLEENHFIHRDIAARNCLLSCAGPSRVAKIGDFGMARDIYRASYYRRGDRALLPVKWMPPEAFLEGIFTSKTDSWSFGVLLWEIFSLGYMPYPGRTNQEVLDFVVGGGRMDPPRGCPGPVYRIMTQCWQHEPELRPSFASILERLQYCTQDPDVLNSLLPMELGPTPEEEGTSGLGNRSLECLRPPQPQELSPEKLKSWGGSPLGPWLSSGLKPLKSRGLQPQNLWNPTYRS
In data set [4] the target is T1, kinases (KINOMEscan panel) (Homo sapiens, UniProt Q9NRP7).
T1 sequence (Q9NRP7 1-1315): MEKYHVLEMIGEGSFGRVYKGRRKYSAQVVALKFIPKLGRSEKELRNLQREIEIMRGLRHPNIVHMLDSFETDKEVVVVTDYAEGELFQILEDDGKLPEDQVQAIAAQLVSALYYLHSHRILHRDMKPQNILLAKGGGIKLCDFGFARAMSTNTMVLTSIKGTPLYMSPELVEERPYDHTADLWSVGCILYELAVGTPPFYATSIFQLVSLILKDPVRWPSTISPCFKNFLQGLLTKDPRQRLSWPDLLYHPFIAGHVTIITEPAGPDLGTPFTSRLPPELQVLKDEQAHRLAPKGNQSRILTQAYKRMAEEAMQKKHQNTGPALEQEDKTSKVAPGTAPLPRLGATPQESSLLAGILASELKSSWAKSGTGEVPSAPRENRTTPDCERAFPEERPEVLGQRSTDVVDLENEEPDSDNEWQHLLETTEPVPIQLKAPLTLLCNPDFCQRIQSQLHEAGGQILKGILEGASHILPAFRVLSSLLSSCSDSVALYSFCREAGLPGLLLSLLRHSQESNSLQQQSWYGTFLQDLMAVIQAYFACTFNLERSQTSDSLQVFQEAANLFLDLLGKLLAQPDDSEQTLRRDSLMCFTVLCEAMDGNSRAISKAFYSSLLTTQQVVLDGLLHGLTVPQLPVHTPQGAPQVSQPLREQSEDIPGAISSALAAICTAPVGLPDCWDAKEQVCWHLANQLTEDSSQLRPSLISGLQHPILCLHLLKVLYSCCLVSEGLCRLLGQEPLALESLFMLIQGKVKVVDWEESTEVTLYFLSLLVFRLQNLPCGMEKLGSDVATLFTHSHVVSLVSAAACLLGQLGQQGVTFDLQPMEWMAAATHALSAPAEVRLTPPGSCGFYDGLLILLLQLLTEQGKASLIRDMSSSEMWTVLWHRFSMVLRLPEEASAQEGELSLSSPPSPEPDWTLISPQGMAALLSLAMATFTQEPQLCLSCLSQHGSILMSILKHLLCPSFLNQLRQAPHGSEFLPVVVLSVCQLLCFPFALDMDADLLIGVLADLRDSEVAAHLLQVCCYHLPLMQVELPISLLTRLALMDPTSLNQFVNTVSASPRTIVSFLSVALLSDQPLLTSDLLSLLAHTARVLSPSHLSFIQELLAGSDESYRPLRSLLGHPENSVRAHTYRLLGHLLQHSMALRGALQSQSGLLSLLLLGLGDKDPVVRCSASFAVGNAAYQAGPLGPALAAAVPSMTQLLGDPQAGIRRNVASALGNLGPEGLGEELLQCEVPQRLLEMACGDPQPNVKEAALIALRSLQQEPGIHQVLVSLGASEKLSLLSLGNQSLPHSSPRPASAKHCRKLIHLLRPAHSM
The following applies: STK36; Published KINOMEscan; ref original PKIS2 published data; cited from earlier work.

Data set [5] concerns the target T2, kinases (KINOMEscan panel) (Homo sapiens, UniProt Q6ZWH5).
T2 sequence (Q6ZWH5 1-1172): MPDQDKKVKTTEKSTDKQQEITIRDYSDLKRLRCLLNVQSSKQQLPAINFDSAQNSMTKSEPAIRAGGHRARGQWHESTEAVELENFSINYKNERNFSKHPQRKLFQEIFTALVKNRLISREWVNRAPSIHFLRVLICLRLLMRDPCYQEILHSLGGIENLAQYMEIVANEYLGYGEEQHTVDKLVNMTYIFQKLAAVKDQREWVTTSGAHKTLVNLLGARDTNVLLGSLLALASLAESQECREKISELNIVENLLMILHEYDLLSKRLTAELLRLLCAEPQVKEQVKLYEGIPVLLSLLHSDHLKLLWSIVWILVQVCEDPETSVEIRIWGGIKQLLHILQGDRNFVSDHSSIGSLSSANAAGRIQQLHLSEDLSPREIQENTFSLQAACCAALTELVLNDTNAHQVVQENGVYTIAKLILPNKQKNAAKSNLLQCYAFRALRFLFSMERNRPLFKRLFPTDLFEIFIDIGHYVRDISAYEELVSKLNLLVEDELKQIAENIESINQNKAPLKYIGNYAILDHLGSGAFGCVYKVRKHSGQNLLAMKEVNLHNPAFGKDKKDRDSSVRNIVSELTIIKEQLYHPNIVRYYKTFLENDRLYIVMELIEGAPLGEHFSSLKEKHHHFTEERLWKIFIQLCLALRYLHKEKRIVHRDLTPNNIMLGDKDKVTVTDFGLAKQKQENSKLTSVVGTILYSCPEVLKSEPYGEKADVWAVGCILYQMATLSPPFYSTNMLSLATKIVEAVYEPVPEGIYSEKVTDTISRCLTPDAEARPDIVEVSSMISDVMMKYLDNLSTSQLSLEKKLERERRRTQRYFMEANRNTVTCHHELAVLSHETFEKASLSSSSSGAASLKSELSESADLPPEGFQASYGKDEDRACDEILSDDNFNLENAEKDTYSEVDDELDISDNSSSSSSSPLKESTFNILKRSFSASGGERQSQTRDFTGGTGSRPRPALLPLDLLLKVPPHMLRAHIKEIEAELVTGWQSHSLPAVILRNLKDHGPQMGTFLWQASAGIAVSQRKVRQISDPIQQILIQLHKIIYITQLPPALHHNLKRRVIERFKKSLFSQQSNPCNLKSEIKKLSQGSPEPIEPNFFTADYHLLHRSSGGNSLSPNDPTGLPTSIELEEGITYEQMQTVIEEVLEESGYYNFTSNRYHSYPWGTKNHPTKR
The following applies: Published KINOMEscan; ref original PKIS2 published data; cited from earlier work.

Sequence of kinases (KINOMEscan panel) (Homo sapiens, UniProt Q8TDR2) (Q8TDR2 whole entry): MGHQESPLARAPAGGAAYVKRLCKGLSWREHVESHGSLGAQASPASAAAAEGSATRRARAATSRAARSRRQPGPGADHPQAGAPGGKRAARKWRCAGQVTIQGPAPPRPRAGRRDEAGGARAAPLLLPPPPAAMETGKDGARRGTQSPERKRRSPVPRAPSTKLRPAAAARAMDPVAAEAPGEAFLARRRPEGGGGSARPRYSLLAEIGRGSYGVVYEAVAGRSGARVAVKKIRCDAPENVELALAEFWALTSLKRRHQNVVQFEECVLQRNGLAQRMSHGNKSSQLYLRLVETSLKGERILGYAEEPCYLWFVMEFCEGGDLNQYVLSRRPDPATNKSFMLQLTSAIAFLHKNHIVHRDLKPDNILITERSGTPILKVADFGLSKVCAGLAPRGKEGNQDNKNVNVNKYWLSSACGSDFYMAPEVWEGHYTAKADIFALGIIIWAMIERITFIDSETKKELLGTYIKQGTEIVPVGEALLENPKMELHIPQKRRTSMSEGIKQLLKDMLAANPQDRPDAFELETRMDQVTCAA

In the case of `Cc1cccc(-c2nc(Nc3ccncc3)c3ccccc3n2)n1` [NK215], the “KINOMEscan EPHA2” value in data set [1] is listed as 18. For the same molecule, the “KINOMEscan STK35” value in data set [2] is 0. Further, the “KINOMEscan LTK” value in data set [3] is reported as 21. Moreover, the “KINOMEscan STK36” value in data set [4] is 5. The “KINOMEscan NEK10” value in data set [5] is reported as 0.
